DC50 and Dmax data for nine molecules are collected here from patent US20260317324A1, “BIFUNCTIONAL COMPOUNDS FOR DEGRADING BRAF VIA UBIQUITIN PROTEOSOME PATHWAY” (Nurix Therapeutics, Inc., priority 2023, published 2026).

Holding throughout (format): cell-based
Experiment [1] has as its target T1, BRAF D594G (Homo sapiens, UniProt P15056, D594G).
T1 construct: Horizon Discovery (HCT-116 BRAF−/− cells); host or cells: HCT-116 BRAF−/− cells, clone 63, lentiviral transduction
The experiment can be described thus: BRAF HiBiT degradation assay, C-terminal HiBiT-tagged BRAF D594G overexpressed in HCT-116 BRAF−/− cells (clone 63), Nano-Glo HiBiT Lytic assay. In short, it runs like this:
(§1)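 We quantified degradation of the C-terminally HiBiT-tagged, overexpressed mutant by lytic luminescence, normalizing to DMSO-treated cells with wild-type HCT-116 background subtracted. Dose series ran from 1 μM to 0.01 nM at 0.2% DMSO. Observed Dmax is % degraded at maximal effect.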

Experiment [2] concerns the target T2, BRAF V600E (Homo sapiens, UniProt P15056, V600E).
T2 construct: endogenous C-terminal HiBiT fusion tag on BRAF V600E allele; endogenous in cells; host or cells: A375 clone 1F10 (CRISPR-Cas9 knock-in of the HiBiT tag; parental A375 from ATCC)
The experiment can be described thus: BRAF HiBiT degradation assay, C-terminal HiBiT-tagged BRAF V600E A375 cells (clone 1F10), Nano-Glo HiBiT Lytic assay. The following applies: for Dmax: A-375. Put shortly: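 Steps: seed HiBiT-tagged A375 clone 1F10 cells; incubate 24 h, 37 °C, 5% CO2; add compound (11 half-log points from 1 μM, 0.2% DMSO); lyse with HiBiT detection reagent plus LgBiT for 10 min; read luminescence; fit % protein remaining against concentration.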

Experiment [3] deals with T3, BRAF G469A (Homo sapiens, UniProt P15056, G469A).
T3 construct: Horizon Discovery (HCT-116 BRAF−/− cells); host or cells: HCT-116 BRAF−/− cells, clone 34, lentiviral transduction
The experiment is described as follows: BRAF HiBiT degradation assay, C-terminal HiBiT-tagged BRAF G469A overexpressed in HCT-116 BRAF−/− cells (clone 34), Nano-Glo HiBiT Lytic assay. Put shortly:
as §1
A general note: HiBiT is a short tag that completes a luciferase, so light tracks the accessible tagged protein.

Experiment [4] deals with T4, BRAF G466V (Homo sapiens, UniProt P15056, G466V).
T4 construct: Horizon Discovery (HCT-116 BRAF−/− cells); host or cells: HCT-116 BRAF−/− cells, clone 8, lentiviral transduction
The experiment can be described thus: BRAF HiBiT degradation assay, C-terminal HiBiT-tagged BRAF G466V overexpressed in HCT-116 BRAF−/− cells (clone 8), Nano-Glo HiBiT Lytic assay. Put shortly: as §1

Where [5] appears, read: BRAF D594G (Class 3), HCT-116 BRAF−/− cells, DC50 at 50% degradation.
Setting [6] is: BRAF D594G (Class 3), HCT-116 BRAF−/− cells, observed Dmax relative to DMSO control.
The mark [7] stands for this setting: A375 (BRAF V600E, Class 1), DC50 at 50% degradation.
The mark [8] stands for this setting: A375 (BRAF V600E, Class 1), observed Dmax, % protein degraded relative to DMSO control.
Where [9] appears, read: BRAF G469A (Class 2), HCT-116 BRAF−/− cells, DC50 at 50% degradation.
Setting [10] is: BRAF G469A (Class 2), HCT-116 BRAF−/− cells, observed Dmax relative to DMSO control.
Setting [11] is: BRAF G466V (Class 3), HCT-116 BRAF−/− cells, DC50 at 50% degradation.
Setting [12] is: BRAF G466V (Class 3), HCT-116 BRAF−/− cells, observed Dmax relative to DMSO control.
Where [13] appears, read: BRAF D594G, DC50 at 50%: fitted conc. at Y=50.
The mark [14] stands for this setting: HCT-116, BRAF D594G, percentage protein degraded at maximal compound effect relative to DMSO.
Setting [15] is: A375 (BRAF V600E), DC50 at 50%: fitted conc. at Y=50.
The mark [16] stands for this setting: A375 (BRAF V600E), percentage protein degraded at maximal compound effect relative to DMSO.
Where [17] appears, read: Class 2, BRAF G469A, DC50 at 50%: fitted conc. at Y=50.
The mark [18] stands for this setting: HCT-116, Class 2, BRAF G469A, percentage protein degraded at maximal compound effect relative to DMSO.
The mark [19] stands for this setting: BRAF G466V, DC50 at 50%: fitted conc. at Y=50.
The mark [20] stands for this setting: HCT-116, BRAF G466V, percentage protein degraded at maximal compound effect relative to DMSO.

T1 sequence (P15056 whole entry D594G): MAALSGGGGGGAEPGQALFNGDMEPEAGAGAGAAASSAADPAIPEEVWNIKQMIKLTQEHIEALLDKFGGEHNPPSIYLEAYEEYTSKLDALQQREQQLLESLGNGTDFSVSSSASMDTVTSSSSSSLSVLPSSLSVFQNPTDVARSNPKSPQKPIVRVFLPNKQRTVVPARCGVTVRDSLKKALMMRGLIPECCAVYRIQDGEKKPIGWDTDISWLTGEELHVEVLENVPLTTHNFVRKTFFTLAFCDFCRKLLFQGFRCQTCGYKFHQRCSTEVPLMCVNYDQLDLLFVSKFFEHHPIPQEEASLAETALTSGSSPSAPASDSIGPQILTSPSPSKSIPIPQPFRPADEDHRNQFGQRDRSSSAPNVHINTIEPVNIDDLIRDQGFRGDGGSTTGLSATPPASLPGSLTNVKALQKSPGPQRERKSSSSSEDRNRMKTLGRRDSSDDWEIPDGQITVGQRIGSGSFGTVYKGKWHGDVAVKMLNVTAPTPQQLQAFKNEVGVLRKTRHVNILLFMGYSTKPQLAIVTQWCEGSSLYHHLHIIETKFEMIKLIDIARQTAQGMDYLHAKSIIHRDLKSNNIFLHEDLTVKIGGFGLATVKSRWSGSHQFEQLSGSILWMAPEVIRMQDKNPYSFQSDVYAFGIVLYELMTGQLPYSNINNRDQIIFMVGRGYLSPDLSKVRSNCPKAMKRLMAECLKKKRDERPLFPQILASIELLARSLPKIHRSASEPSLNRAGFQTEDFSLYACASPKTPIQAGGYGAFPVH
T2 sequence (P15056 whole entry V600E, the tested form may be a part): as the sequence (P15056 whole entry D594G) above, with G594D, V600E counted along it
T3 sequence (P15056 whole entry G469A): as the sequence (P15056 whole entry D594G) above, with G469A, G594D counted along it
T4 sequence (P15056 whole entry G466V): as the sequence (P15056 whole entry D594G) above, with G466V, G594D counted along it

For orientation: DC50 means the midpoint of the concentration-degradation curve. Low readings indicate degradation at low concentration, high ones degradation only at high concentration. By Dmax is commonly meant the largest share of the target that was removed. A low value points to a partial loss of target. In the case of `O=C1CCN(c2ccc(N3CCC(CN4CCN(c5ccc(-n6cc(-c7cc(Cl)cc(NS(=O)(=O)N8CC(F)C8)c7F)c(-c7ccncc7)n6)cc5)CC4)CC3)nc2)C(=O)N1` [Compound 368, N-[5-chloro-3-(1-{4-[4-({1-[5-(2,4-dioxo-1,3-diazinan-1-yl)pyridin-2-yl]piperidin-4-yl}methyl)piperazin-1-yl]phenyl}-3-(pyridin-4-yl)-1H-pyrazol-4-yl)-2-fluorophenyl]-3-fluoroazetidine-1-sulfonamide], the DC50 in experiment [1] (setting [5]) was below 10 nM; in experiment [2] (setting [7]) it was below 10 nM; in experiment [3] (setting [9]), 10 to 50 nM; in experiment [4] (setting [11]) it was below 10 nM. Also, the Dmax in experiment [1] (setting [6]) was 30 to 70%; in experiment [2] (setting [8]), above 70%; in experiment [3] (setting [10]) it was 30 to 70%; in experiment [4] (setting [12]), 30 to 70%.
`CCCS(=O)(=O)Nc1cccc(-c2nc(C(C)(C)C)sc2-c2ccnc(Nc3ccc(C4CCN(CC5CCN(c6ccc(C7CCC(=O)NC7=O)cc6)CC5)CC4)cc3)n2)c1F` (racemic) [Compound 167, Rac-N-[3-(2-tert-butyl-5-{2-[(4-{1-[(1-{4-[(3R)-2,6-dioxopiperidin-3-yl]phenyl}piperidin-4-yl)methyl]piperidin-4-yl}phenyl)amino]pyrimidin-4-yl}-1,3-thiazol-4-yl)-2-fluorophenyl]propane-1-sulfonamide]: the DC50 in experiment [1] (setting [13]) was above 500 nM; in experiment [2] (setting [15]), 10 to 50 nM; in experiment [3] (setting [17]) it was above 500 nM; in experiment [4] (setting [19]), above 500 nM. Also, the Dmax in experiment [1] (setting [14]), in experiment [2] (setting [16]), in experiment [3] (setting [18]) and in experiment [4] (setting [20]) was 30 to 70% each time.
With `CCCS(=O)(=O)Nc1cccc(-c2nc(C3CCN(CC4CCN(C(=O)[C@H]5CC[C@H](Oc6ccc(C7CCC(=O)NC7=O)cc6)CC5)CC4)CC3)sc2-c2ccnc(N)n2)c1F` (mixture of isomers) [Compound 224, N-{3-[5-(2-aminopyrimidin-4-yl)-2-[1-({1-[(1r,4r)-4-{4-[(3RS)-2,6-dioxopiperidin-3-yl]phenoxy}cyclohexanecarbonyl]piperidin-4-yl}methyl)piperidin-4-yl]-1,3-thiazol-4-yl]-2-fluorophenyl}propane-1-sulfonamide], the DC50 in experiment [1] (setting [13]) is above 500 nM; in experiment [2] (setting [15]), below 10 nM; in experiment [3] (setting [17]) it was above 500 nM; in experiment [4] (setting [19]), above 500 nM. The Dmax in experiment [1] (setting [14]) is 30 to 70%; in experiment [2] (setting [16]), above 70%; in experiment [3] (setting [18]), below 30%; in experiment [4] (setting [20]) it was 30 to 70%.
With `O=C1CCN(c2ccc(N3CCC(CN4CCN(c5ccc(-n6cc(-c7cc(Cl)cc(NS(=O)(=O)N8CC[C@@H](F)C8)c7F)c(-c7ccncc7)n6)cc5F)CC4)CC3)cc2)C(=O)N1` [Compound 365, (3R)—N-[5-chloro-3-(1-{4-[4-({1-[4-(2,4-dioxo-1,3-diazinan-1-yl)phenyl]piperidin-4-yl}methyl)piperazin-1-yl]-3-fluorophenyl}-3-(pyridin-4-yl)-1H-pyrazol-4-yl)-2-fluorophenyl]-3-fluoropyrrolidine-1-sulfonamide], the DC50 in experiment [1] (setting [5]) is below 10 nM; in experiment [2] (setting [7]), below 10 nM; in experiment [3] (setting [9]) it was above 500 nM; in experiment [4] (setting [11]) it was below 10 nM. In addition, the Dmax is 30 to 70% in experiment [1] (setting [6]), above 70% in experiment [2] (setting [8]), 30 to 70% in experiment [3] (setting [10]) and 30 to 70% in experiment [4] (setting [12]).
Consider `CCCS(=O)(=O)Nc1cccc(-c2nc(C(C)(C)C)sc2-c2ccnc(NC3CC4(C3)CN(CC3CCN(c5ccc(C(=O)NC6CCC(=O)NC6=O)cc5)CC3)C4)n2)c1F` (racemic) [Compound 170, Rac-4-[4-({6-[(4-{2-tert-butyl-4-[2-fluoro-3-(propane-1-sulfonamido)phenyl]-1,3-thiazol-5-yl}pyrimidin-2-yl)amino]-2-azaspiro[3.3]heptan-2-yl}methyl)piperidin-1-yl]-N-[(3R)-2,6-dioxopiperidin-3-yl]benzamide], for which the DC50 is above 500 nM in experiment [1] (setting [13]), 50 to 500 nM in experiment [2] (setting [15]), above 500 nM in experiment [3] (setting [17]) and above 500 nM in experiment [4] (setting [19]). Further, the Dmax in experiment [1] (setting [14]) was below 30%; in experiment [2] (setting [16]), 30 to 70%; in experiment [3] (setting [18]), below 30%; in experiment [4] (setting [20]) it was below 30%.
As for `CCCS(=O)(=O)Nc1cccc(-c2cn(C3CCN(C(=O)C4CCN(CC5CCN(c6ccc(C7CCC(=O)NC7=O)cn6)CC5)CC4)CC3)nc2-c2ccncc2)c1F` (racemic) [Compound 6, Rac-N-{3-[1-(1-{1-[(1-{5-[(3R)-2,6-dioxopiperidin-3-yl]pyridin-2-yl}piperidin-4-yl)methyl]piperidine-4-carbonyl}piperidin-4-yl)-3-(pyridin-4-yl)-1H-pyrazol-4-yl]-2-fluorophenyl}propane-1-sulfonamide], the DC50 in experiment [1] (setting [13]) was above 500 nM; in experiment [2] (setting [15]), 10 to 50 nM; in experiment [3] (setting [17]), above 500 nM; in experiment [4] (setting [19]), above 500 nM. Moreover, the Dmax was 30 to 70% in experiment [1] (setting [14]), above 70% in experiment [2] (setting [16]), below 30% in experiment [3] (setting [18]) and 30 to 70% in experiment [4] (setting [20]).
As for `O=C1CCC(c2ccc(N3CCC(CN4CCN(c5ccc(-n6cc(-c7cc(Cl)cc(NS(=O)(=O)N8CCCC8)c7F)c(-c7ccncc7)n6)cc5)CC4)CC3)c(F)c2)C(=O)N1` (racemic) [Compound 347, Rac-N-{5-chloro-3-[1-(4-{4-[(1-{4-[(3R)-2,6-dioxopiperidin-3-yl]-2-fluorophenyl}piperidin-4-yl)methyl]piperazin-1-yl}phenyl)-3-(pyridin-4-yl)-1H-pyrazol-4-yl]-2-fluorophenyl}pyrrolidine-1-sulfonamide], the DC50 in experiment [1] (setting [5]) was below 10 nM; in experiment [2] (setting [7]), below 10 nM; in experiment [3] (setting [9]) it was 10 to 50 nM; in experiment [4] (setting [11]), below 10 nM. The Dmax in experiment [1] (setting [6]) was above 70%; in experiment [2] (setting [8]) it was above 70%; in experiment [3] (setting [10]) it was 30 to 70%; in experiment [4] (setting [12]) it was above 70%.
For `CCCS(=O)(=O)Nc1cccc(-c2nc(C(C)(C)C)sc2-c2ccnc(N[C@H]3CC[C@@H](N4CCN(CC5CCN(c6ccc(C7CCC(=O)NC7=O)cn6)CC5)CC4)CC3)n2)c1F` (mixture of isomers) [Compound 134, N-{3-[2-tert-butyl-5-(2-{[(1s,4s)-4-{4-[(1-{5-[(3RS)-2,6-dioxopiperidin-3-yl]pyridin-2-yl}piperidin-4-yl)methyl]piperazin-1-yl}cyclohexyl]amino}pyrimidin-4-yl)-1,3-thiazol-4-yl]-2-fluorophenyl}propane-1-sulfonamide], the DC50 is 10 to 50 nM in experiment [1] (setting [13]), 10 to 50 nM in experiment [2] (setting [15]), 50 to 500 nM in experiment [3] (setting [17]) and 10 to 50 nM in experiment [4] (setting [19]). The Dmax in experiment [1] (setting [14]) was 30 to 70%; in experiment [2] (setting [16]) it was above 70%; in experiment [3] (setting [18]) it was 30 to 70%; in experiment [4] (setting [20]) it was 30 to 70%.
Regarding `CCCS(=O)(=O)Nc1cccc(-c2cn(-c3ccc(N4CCN(CC5CCN(c6ccc(C7CCC(=O)NC7=O)cc6)CC5)CC4)cc3)nc2-c2ccncc2)c1F` (racemic) [Compound 21, Rac-N-{3-[1-(4-{4-[(1-{4-[(3R)-2,6-dioxopiperidin-3-yl]phenyl}piperidin-4-yl)methyl]piperazin-1-yl}phenyl)-3-(pyridin-4-yl)-1H-pyrazol-4-yl]-2-fluorophenyl}propane-1-sulfonamide], the 50% degradation concentration (DC50) is above 500 nM in experiment [1] (setting [13]), 10 to 50 nM in experiment [2] (setting [15]), above 500 nM in experiment [3] (setting [17]) and 10 to 50 nM in experiment [4] (setting [19]). For the same molecule, the Dmax is 30 to 70% in experiment [1] (setting [14]), above 70% in experiment [2] (setting [16]), 30 to 70% in experiment [3] (setting [18]) and 30 to 70% in experiment [4] (setting [20]).
